The source of these data is patent publication US6903130B1, “Pyrrolidineacetamide derivative alone or in combination for treatment of cns disorders” (UCB S.A., priority 1999, dated 2005).

Data set [1] has as its system GABA levels, GABA transaminase and glutamic decarboxylase. The conditions noted are these: mouse brain; cited from earlier work.
The subject of data set [2] is amygdala-kindled rats. Put plainly: Protection against secondarily generalized motor seizures in amygdala-kindled rats. The format is in vivo, rat. The conditions noted are these: for ED50: Rattus norvegicus, ip, read-out: ED50, protection against secondarily generalized motor seizures. An excerpt: The purpose of this study was to evaluate the pharmacodynamic interaction between valproate levetiracetam in preventing secondarily generalized motor seizures in amygdala-kindled rats, a model that has repeatedly been proposed to reflect complex partial seizures with secondarily generalization in man ([…]. & al., Exp. Neurol. […] McNamara J. O., Ann. of Neurol. (1984), 16 (suppl.), […]-[…]). In this model, focal electrical kindling of amygdala in rats induces the development of electrical seizure activity ([…] amygdala and behavioral seizures, generally evolving through facial clonus, head nodding, forelimb clonus, rearing and fully kindled seizures with rearing and falling accompanied by generalized clonic seizures (Racine R. J., Electroencephalogr. Clin. Neurophysiol. (1972), 32, 281-294). […] Neurol. […] Two days later, drugs were tested. The behavioral effect of stimulation was graded according to the score of Racine (Racine R. J., Electroencephalogr. Clin. Neurophysiol. (1972), 32, 281-294).

The next data set deals with epileptic patients. Put plainly: Tolerability studies in epileptic patients. It counts as in vivo, human. The conditions noted are these: doses up to 4000 mg/day; preliminary data.
For the next data set, the system named is sound-sensitive mice. Put plainly: Audiogenic seizure testing, protection against clonic convulsions. It counts as in vivo, mouse. The conditions noted are these: for ED50: Mus musculus, ip, read-out: ED50, protection against audiogenic-induced clonic convulsions. An excerpt: The purpose of this study was to evaluate the effect of levetiracetam on the anticonvulsivant potency of valproate in sound sensitive mice, a genetic animal model with reflex seizures. In this model of generalized epilepsy, seizures can be evoked without electrical or chemical stimulation and seizure types, at least in part, are similar in their clinical phenomenology to seizures occurring in man (Löscher W. & Schmidt D., Epilepsy Res. (1988), 2, 145-181; Buchhalter J. R., Epilepsia (1993), 34, S31-S41).
The experimental design consisted of one group receiving vehicles, another group receiving levetiracetam alone at a dose of 5.5 mg/kg and the other groups receiving different doses of valproate alone or in combination with levetiracetam. Levetiracetam alone was also tested. […] Levetiracetam and sodium valproate were both dissolved in 0.9% saline solution, to give solutions of pH 6.4 and 6.2, respectively.
The proportion of mice protected against clonic convulsions was calculated and used as the end point for the anticonvulsant activity.
Methods used for calculation and statistical analysis are described hereafter: • A response to drug treatment was expressed as the proportion of animals protected against induced convulsions, or showing an impairment of the rotarod performance, at each individual dose. […] From these formulations, the dose of valproate, considered as expected value, that should be associated to a constant dose of levetiracetam in order to afford 50% of protection, may be calculated as: [formula] for the additive model [formula] for the independent model.
These calculated doses (Vm50 expected) may then be compared to the observed doses of valproate which, in combination with a constant dose of levetiracetam, induce an effect corresponding to 50% protection (Vm50 observed). […]

For data set [3], the system named is amygdala-kindled rats. Kind of data set: Rotarod test in amygdala-kindled rats. Here is the method:
Levetiracetam and valproate, in a dose-volume of 5 ml/kg body weight, were administered intraperitoneally 60 and 30 minutes, respectively, before the induction of kindling or the measurement of rotarod performance. Levetiracetam ([…]) and sodium valproate (50, 100, 150, 200 and 300 mg/kg) were both dissolved in 0.9% NaCl to give solutions of pH 5.9 and 6.3, respectively. Control rats received an equivalent dose-volume of the appropriate vehicle.
The amygdala-kindled rats (n=8) were also tested on a rotating rod. The animals were pretreated with i.p. administrations of levetiracetam and valproate 60 and 30 minutes, respectively, before testing, Only animals that were unable to remain on the rod after three subsequent 1-minute attempts were considered as having an impaired performance. Results were analyzed as described in example 1.

Setting [4] is: compound alone, i.p., LOGIT-LOG DOSE regression.

Like-named read-outs stand apart in the source and are kept apart here.

Usually ED50 stands for the dose at which the effect has come halfway, by size or by number of responders. As for `CC[C@@H](C(N)=O)N1CCCC1=O` [Levetiracetam, (S)-(−)α-ethyl-2-oxo-1-pyrrolidineacetamide], in data set [1], the “effect on GABA levels and the enzymatic activities of GABA transaminase and glutamic decarboxylase” value is given as “lack of effect”. The ED50 in the data set with amygdala-kindled rats [2] was determined as 307 mg/kg; in the data set on sound-sensitive mice, 10 mg/kg. For the same compound, the “Calculated proportion of animals protected” value in the data set with amygdala-kindled rats [2] (levetiracetam 17 mg/kg alone) is 7%; in the data set on amygdala-kindled rats [2] (levetiracetam 54 mg/kg alone) it was 18%; in the data set with amygdala-kindled rats [2] (levetiracetam 108 mg/kg alone), 28.5%. In addition, the “tolerability (in words)” value in the data set on epileptic patients is “good tolerability”. Moreover, the “animals protected against audiogenic-induced clonic convulsions” value with sound-sensitive mice (levetiracetam 5.5 mg/kg i.p. alone, inferred from dose-response relation) is listed as 20%. Besides, in the data set with amygdala-kindled rats [3] (levetiracetam alone 108, 170 and 540 mg/kg i.p.), the “impairment of rotarod performance (in words)” value was “None of the three doses of levetiracetam tested (108, 170 and 540 mg/kg) impaired the performance”.

Consider `CCCC(CCC)C(=O)[O-].[Na+]` [Valproate, sodium valproate], for which the ED50 stood at 197 mg/kg with amygdala-kindled rats [2] (setting [4]) and 122 mg/kg with sound-sensitive mice (setting [4]). The “Impairment in the performance within the rotarod test” value in the data set on amygdala-kindled rats [3] (valproate 197 mg/kg + saline (treatment protecting 50% of the rats)) is recorded as 46%.
